System: Recombinant human AMPK proteins (α1β1γ1, α2β1γ1, α1(1-335), α1(1-394) or α2(1-394))
Assay: Scintillation Proximity Assay (SPA) of AMPK activation
Type: biochemical
Settings: activator concentration for 50% of maximal enzyme activity; 50 nM recombinant AMPK, 2 μM ATP, 30° C., 2 hr
Method: Recombinant human AMPK α1β1γ1, α2β1γ1 or AMPK α subunit truncations α1(1-335), α1(1-394) and α2(1-394) were constructed, expressed and purified as described previously (Pang, T., Zhang, Z. S., Gu, M., Qiu, B. Y., Yu, L. F., Cao, P. R., Shao, W., Su, M. B., Li, J. Y., Nan, F. J., and Li, J. (2008)). Rat liver AMPK heterotrimer enzyme was obtained from Upstate (Billerica, Mass., U.S.A.).
Scintillation Proximity Assay
Before the Scintillation Proximity Assay (SPA) assay, 200 nM recombinant AMPK proteins (α1β1γ1, α2β1γ1, α1(1-335), α1(1-394) or α2(1-394)) were fully phosphorylated as described previously (Pang et al., 2008). SPA reactions were performed in 96-well plates at a final volume of 501 containing 20 mM Tris-HCl pH 7.5, 5 mM MgCl2, 1 mM DTT, 2 μM biotin-SAMS, 2 μM ATP, 0.2 μCi/well [γ-^33P]ATP, and various amount of activator. Reactions were initiated by the addition of 50 nM recombinant AMPK proteins to the reaction solutions and incubated at 30° C. for 2 hr. After that, reactions were terminated by the addition of 401 stop solution containing 80 μg streptavidin-coated SPA beads per well, 50 mM EDTA, 0.1% Triton X-100 in PBS, pH 7.5 and incubated for 1 hr. Finally, a 160 ul suspension solution containing 2.4 M CsCl, 50 mM EDTA, and 0.1% Triton X-100 in PBS (pH 7.5) was added to the reaction solution to suspend SPA beads completely. SPA signals were determined with a Wallac MicroBeta plate counter (PerkinElmer) 30 min later for calculation of the amount of product formed. The amount of products formed in 2 hr was plotted against activator concentrations to determine the effective concentration of the activator (EC50) required for 50% of maximal enzyme activity.
Compounds as described above have EC50 values between 0.5 uM and 50 uM, preferred compounds have EC50 values between 0.5 uM and 10 uM, particularly preferred compounds have EC50 values between 0.5 uM and 1 uM.

Q: With `O=C(O)c1ccc(CN2C(=O)/C(=C(\c3ccccc3)c3ccc(Cl)cc3)c3ccccc32)cc1` [Example 57, 4-{3-[1-(4-Chloro-phenyl)-1-phenyl-meth-(E)-ylidene]-2-oxo-2,3-dihydro-indol-1-ylmethyl}-benzoic acid] as the molecule, how does the EC50 read?
A: 2.17 µM

Q: How did the EC50 turn out when `COc1ccc2c(c1)/C(=C(/c1ccccc1)c1ccc(Cl)cc1)C(=O)N2Cc1cccc(C(=O)O)c1` [Example 58, 3-{3-[1-(4-Chloro-phenyl)-1-phenyl-meth-(E)-ylidene]-5-methoxy-2-oxo-2,3-dihydro-indol-1-ylmethyl}-benzoic acid] was run?
A: 4.87 µM

Q: With `O=C(O)c1ccc(CN2C(=O)/C(=C(\c3ccccc3)c3ccc(Cl)cc3)c3ccccc32)nc1` [Example 59, 6-{3-[1-(4-Chloro-phenyl)-1-phenyl-meth-(E)-ylidene]-2-oxo-2,3-dihydro-indol-1-ylmethyl}-nicotinic acid] as the molecule, how does the EC50 read?
A: 5.19 µM

Q: For `O=C(O)c1cccc(CN2C(=O)/C(=C(\c3ccccc3)c3ccc(Cl)cc3)c3c(F)cccc32)c1` [Example 60, 3-{3-[1-(4-Chloro-phenyl)-1-phenyl-meth-(E)-ylidene]-4-fluoro-2-oxo-2,3-dihydro-indol-1-ylmethyl}-benzoic acid], which EC50 is on record?
A: 1.24 µM

Q: How did the EC50 turn out when `O=C(O)c1cccc(CN2C(=O)/C(=C(\c3ccccc3)c3ccc(Cl)cc3)c3ccc(F)cc32)c1` [Example 61, 3-{3-[1-(4-Chloro-phenyl)-1-phenyl-meth-(E)-ylidene]-6-fluoro-2-oxo-2,3-dihydro-indol-1-ylmethyl}-benzoic acid] was run?
A: 4.93 µM

Q: Which EC50 does the source give for `CSc1ccccc1/C(=C1/C(=O)N(Cc2cccc(C(=O)O)c2)c2ccccc21)c1ccccc1` [Example 62, 3-{3-[1-(2-Methylsulfanyl-phenyl)-1-phenyl-meth-(E)-ylidene]-2-oxo-2,3-dihydro-indol-1-ylmethyl}-benzoic acid] here?
A: 2.33 µM

Q: `O=C(O)c1cccc(CN2C(=O)/C(=C(\c3ccccc3)c3cccnc3)c3ccccc32)c1` [Example 63, 3-{2-Oxo-3-[1-phenyl-1-pyridin-3-yl-meth-(E)-ylidene]-2,3-dihydro-indol-1-ylmethyl}-benzoic acid] was tested. Which EC50 did it give?
A: 3.24 µM

Q: Which EC50 does the source give for `O=C(O)c1cccc(CN2C(=O)/C(=C(\c3ccccc3)c3cc(C(F)(F)F)ccc3Cl)c3ccccc32)c1` [Example 64, 3-{3-[1-(2-Chloro-5-trifluoromethyl-phenyl)-1-phenyl-meth-(E)-ylidene]-2-oxo-2,3-dihydro-indol-1-ylmethyl}-benzoic acid] here?
A: 6.63 µM

Q: `O=C(O)c1cccc(CN2C(=O)/C(=C(\c3ccccc3)c3cc(C(F)(F)F)cc(C(F)(F)F)c3)c3ccccc32)c1` [Example 65, 3-{3-[1-(3,5-Bis-trifluoromethyl-phenyl)-1-phenyl-meth-(E)-ylidene]-2-oxo-2,3-dihydro-indol-1-ylmethyl}-benzoic acid] was tested. Which EC50 did it give?
A: 3.41 µM

Q: With `O=C(O)c1cccc(CN2C(=O)/C(=C(\c3ccccc3)c3cccc(C(F)(F)F)c3)c3ccccc32)c1` [Example 66, 3-{2-Oxo-3-[1-phenyl-1-(3-trifluoromethyl-phenyl)-meth-(E)-ylidene]-2,3-dihydro-indol-1-ylmethyl}-benzoic acid] as the molecule, how does the EC50 read?
A: 2.44 µM

Q: How did the EC50 turn out when `NS(=O)(=O)c1ccc(/C(=C2/C(=O)N(Cc3cccc(C(=O)O)c3)c3ccccc32)c2ccccc2)cc1` [Example 67, 3-{2-Oxo-3-[1-phenyl-1-(4-sulfamoyl-phenyl)-meth-(E)-ylidene]-2,3-dihydro-indol-1-ylmethyl}-benzoic acid] was run?
A: 1.27 µM

Q: `O=C(O)c1cccc(CN2C(=O)/C(=C(/c3ccccc3)c3ccc(Cl)cc3)c3ccccc32)c1` [Example 68, 3-{3-[1-(4-Chloro-phenyl)-1-phenyl-meth-(Z)-ylidene]-2-oxo-2,3-dihydro-indol-1-ylmethyl}-benzoic acid] was tested. Which EC50 did it give?
A: 2.12 µM

Q: Which EC50 does the source give for `O=C(O)c1cccc(CN2C(=O)/C(=C(\c3ccc(Cl)cc3)c3ccc(C(F)(F)F)cc3)c3ccccc32)c1` [Example 69, 3-{3-[1-(4-Chloro-phenyl)-1-(4-trifluoromethyl-phenyl)-meth-(Z)-ylidene]-2-oxo-2,3-dihydro-indol-1-ylmethyl}-benzoic acid] here?
A: 2.2 µM

Q: For `O=C(O)COc1ccc(CN2C(=O)/C(=C(\c3ccccc3)c3ccc(Cl)cc3)c3ccccc32)cc1` [Example 70, (4-{3-[1-(4-Chloro-phenyl)-1-phenyl-meth-(E)-ylidene]-2-oxo-2,3-dihydro-indol-1-ylmethyl}-phenoxy)-acetic acid], which EC50 is on record?
A: 4.96 µM

Q: With `CC(C)c1ccc(/C(=C2/C(=O)N(Cc3cccc(C(=O)O)c3)c3ccccc32)c2ccccc2)cc1` [Example 71, 3-{3-[1-(4-Isopropyl-phenyl)-1-phenyl-meth-(E)-ylidene]-2-oxo-2,3-dihydro-indol-1-ylmethyl}-benzoic acid] as the molecule, how does the EC50 read?
A: 4.02 µM

Q: With `O=C(O)c1cccc(CN2C(=O)/C(=C(\c3ccccc3)c3ccc(F)c(F)c3)c3ccccc32)c1` [Example 72, 3-{3-[1-(3,4-Difluoro-phenyl)-1-phenyl-meth-(E)-ylidene]-2-oxo-2,3-dihydro-indol-1-ylmethyl}-benzoic acid] as the molecule, how does the EC50 read?
A: 3.3 µM

Q: How did the EC50 turn out when `O=C(O)c1cccc(CN2C(=O)/C(=C(\c3ccccc3)c3ccc(Cl)cc3)c3cccc(F)c32)c1` [Example 73, 3-{3-[1-(4-Chloro-phenyl)-1-phenyl-meth-(E)-ylidene]-7-fluoro-2-oxo-2,3-dihydro-indol-1-ylmethyl}-benzoic acid] was run?
A: 5.14 µM

Q: For `O=C(O)c1cccc(CN2C(=O)/C(=C(\c3ccccc3)c3ccc(Cl)cc3)c3cc(Cl)ccc32)c1` [Example 74, 3-{5-Chloro-3-[1-(4-chloro-phenyl)-1-phenyl-meth-(E)-ylidene]-2-oxo-2,3-dihydro-indol-1-ylmethyl}-benzoic acid], which EC50 is on record?
A: 3.17 µM

Q: With `O=C(O)c1cccc(CN2C(=O)/C(=C(\c3ccccc3)c3ccccc3Cl)c3ccccc32)c1` [Example 75, 3-{3-[1-(2-Chloro-phenyl)-1-phenyl-meth-(E)-ylidene]-2-oxo-2,3-dihydro-indol-1-ylmethyl}-benzoic acid] as the molecule, how does the EC50 read?
A: 1.84 µM

Q: Which EC50 does the source give for `O=C(O)c1csc(CN2C(=O)/C(=C(\c3ccccc3)c3ccc(Cl)cc3)c3ccccc32)n1` [Example 76, 2-{3-[1-(4-Chloro-phenyl)-1-phenyl-meth-(E)-ylidene]-2-oxo-2,3-dihydro-indol-1-ylmethyl}-thiazole-4-carboxylic acid] here?
A: 5.14 µM

Q: Which EC50 does the source give for `COC(=O)c1cccc(CN2C(=O)/C(=C(/CCC(C)C)c3ccccc3)c3ccccc32)c1` [Example 77, 3-[3-(4-Methyl-1-phenyl-pent-(Z)-ylidene)-2-oxo-2,3-dihydro-indol-1-ylmethyl]-benzoic acid methyl ester] here?
A: 2.58 µM

Q: `COC(=O)c1cccc(CN2C(=O)/C(=C(/CC(C)(C)C)c3ccccc3)c3ccccc32)c1` [Example 78, 3-{3-[3,3-Dimethyl-1-phenyl-but-(Z)-ylidene]-2-oxo-2,3-dihydro-indol-1-ylmethyl}-benzoic acid methyl ester] was tested. Which EC50 did it give?
A: 1.6 µM

Q: How did the EC50 turn out when `COC(=O)c1cccc(CN2C(=O)/C(=C(/Cc3ccc(Cl)cc3)c3ccccc3)c3ccccc32)c1` [Example 79, 3-{3-[2-(4-Chloro-phenyl)-1-phenyl-eth-(Z)-ylidene]-2-oxo-2,3-dihydro-indol-1-ylmethyl}-benzoic acid methyl ester] was run?
A: 1.69 µM

Q: How did the EC50 turn out when `COC(=O)c1cccc(CN2C(=O)/C(=C(\CC(C)(C)C)c3ccccc3)c3ccccc32)c1` [Example 80, 3-{3-[3,3-Dimethyl-1-phenyl-but-(E)-ylidene]-2-oxo-2,3-dihydro-indol-1-ylmethyl}-benzoic acid methyl ester] was run?
A: 5.8 µM

Q: `CC(C)CC/C(=C1/C(=O)N(Cc2cccc(C(=O)O)c2)c2ccccc21)c1ccccc1` [Example 81, 3-[3-(4-Methyl-1-phenyl-pent-(Z)-ylidene)-2-oxo-2,3-dihydro-indol-1-ylmethyl]-benzoic acid] was tested. Which EC50 did it give?
A: 4.74 µM

Q: How did the EC50 turn out when `CC(C)/C(Cc1ccc(Cl)cc1)=C1\C(=O)N(Cc2cccc(C(=O)O)c2)c2ccccc21` [Example 82, 3-{3-[1-(4-Chloro-benzyl)-2-methyl-prop-(Z)-ylidene]-2-oxo-2,3-dihydro-indol-1-ylmethyl}-benzoic acid] was run?
A: 1.6 µM

Q: For `COC(=O)c1cccc(CN2C(=O)/C(=C(/c3ccccc3)C(C)C)c3ccccc32)c1` [Example 85, 3-{3-[2-Methyl-1-phenyl-prop-(E)-ylidene]-2-oxo-2,3-dihydro-indol-1-ylmethyl}-benzoic acid methyl ester], which EC50 is on record?
A: 4.9 µM

Q: With `COC(=O)c1cccc(CN2C(=O)/C(=C(/c3ccc(C(C)=O)cc3)C(C)C)c3ccccc32)c1` [Example 86, 3-{3-[1-(4-Acetyl-phenyl)-2-methyl-prop-(E)-ylidene]-2-oxo-2,3-dihydro-indol-1-ylmethyl}-benzoic acid methyl ester] as the molecule, how does the EC50 read?
A: 7.88 µM

From patent US8778973B2, “Alkene oxindole derivatives” (Hoffmann-La Roche Inc., priority 2009, dated 2014)
